Assay results: PMC7857480 (The Journal of Biological Chemistry, 2020)

Molecular target: FigA (Francisella tularensis, UniProt Q15EH0)
Conditions: FigA alone; citrate, 2.25 mM ATP, 15 mM MgCl2, 50 mM HEPES pH 7.4, RT 2 h

FigA, sequence (Q15EH0 1-639): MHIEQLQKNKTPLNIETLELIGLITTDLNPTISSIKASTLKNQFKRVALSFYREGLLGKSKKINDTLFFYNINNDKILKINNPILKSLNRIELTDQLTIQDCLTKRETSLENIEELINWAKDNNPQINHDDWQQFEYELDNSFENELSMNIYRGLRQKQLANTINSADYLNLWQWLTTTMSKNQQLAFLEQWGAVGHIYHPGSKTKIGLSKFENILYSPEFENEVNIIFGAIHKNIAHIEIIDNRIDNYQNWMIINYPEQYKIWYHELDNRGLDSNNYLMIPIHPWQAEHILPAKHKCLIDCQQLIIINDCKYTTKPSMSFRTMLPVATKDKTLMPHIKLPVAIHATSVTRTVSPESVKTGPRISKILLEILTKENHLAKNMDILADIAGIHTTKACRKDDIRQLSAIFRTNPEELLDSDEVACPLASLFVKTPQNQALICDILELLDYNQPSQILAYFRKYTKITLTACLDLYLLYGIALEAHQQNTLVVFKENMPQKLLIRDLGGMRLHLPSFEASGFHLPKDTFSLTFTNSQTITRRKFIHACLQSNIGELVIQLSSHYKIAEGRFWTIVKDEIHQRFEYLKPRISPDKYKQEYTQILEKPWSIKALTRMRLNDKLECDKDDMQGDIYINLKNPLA

## NCCC[C@H](N)C(=O)O [L-ornithine]
  in vitro assay, LC-MS of N-citrylornithine (m/z 307.1): FigA alone assayed with citrate and L-ornithine assay were analyzed by LC-MS
